Measured values published in patent publication US5563155A, “Individual stereosiomers of 7-[3-(aminoalkyl)-1-pyrrolidinyl]-quinolones and naphthyridones as antibacterial agents” (Warner-Lambert Company, priority 1995, dated 1996).
Converted amounts (≈) assume the structure as drawn. Where two headings read alike, the source gives them in different places.

What was measured:
Esch. coli Vogel [1] = assay: in vitro antibacterial activity, microtitration dilution (MIC), Esch. coli Vogel; type: cell-based; conditions: Escherichia coli, read-out: minimum inhibiting concentration (MIC)
Source text: (§1) The in vitro antibacterial activity, is obtained by the microtitration dilution method as described in Heifetz, et al., Antimicr. Agents & Chemother., 6, 124 (1974), which is incorporated herein by reference.
(§2) By use of the above methods, the following minimum inhibiting concentration values (MICs in μg/mL), PD50 's in mg/kg, no effect phototoxicity dose in mg/kg and the cytotoxicity IC50 in μg/mL were obtained for representative enantiomers of the invention and compounds of the prior art as shown in the table.

Staph. aureus UC-76 = assay: in vitro antibacterial activity, microtitration dilution (MIC), Staph. aureus UC-76; type: cell-based; conditions: Staphylococcus aureus, UC76, read-out: minimum inhibiting concentration (MIC)
Source text: as §1, §2

Strep. pyogenes C-203 [2] = assay: in vitro antibacterial activity, microtitration dilution (MIC), Strep. pyogenes C-203; type: cell-based; conditions: Streptococcus pyogenes, C203, read-out: minimum inhibiting concentration (MIC)
Source text: as §1, §2

Staph. aureus H 228 = assay: in vitro antibacterial activity, microtitration dilution (MIC), Staph. aureus H 228; type: cell-based; conditions: Staphylococcus aureus, H228, read-out: minimum inhibiting concentration (MIC)
Source text: as §1, §2

Klebs. pneumoniae MGH-2 = assay: in vitro antibacterial activity, microtitration dilution (MIC), Klebs. pneumoniae MGH-2; type: cell-based; conditions: Klebsiella pneumoniae, MGH2, read-out: minimum inhibiting concentration (MIC)
Source text: as §1, §2

Pseud. aeruginosa UI-18 = assay: in vitro antibacterial activity, microtitration dilution (MIC), Pseud. aeruginosa UI-18; type: cell-based; conditions: Pseudomonas aeruginosa, UI18, read-out: minimum inhibiting concentration (MIC)
Source text: as §1, §2

Prot. rettgeri M 1771 = assay: in vitro antibacterial activity, microtitration dilution (MIC), Prot. rettgeri M 1771; type: cell-based; conditions: Providencia rettgeri, M1771, read-out: minimum inhibiting concentration (MIC)
Source text: as §1, §2

Strep. pheumoniae SV-1 [3] = assay: in vitro antibacterial activity, microtitration dilution (MIC), Strep. pneumoniae SV-1; type: cell-based; conditions: Streptococcus pneumoniae, SV1, read-out: minimum inhibiting concentration (MIC)
Source text: as §1, §2

Strep. pyogenes C-203 [4] = assay: median protective dose in mice given lethal systemic infections, Strep. pyogenes C-203; type: in vivo; conditions: Streptococcus pyogenes, single dose at time of challenge, read-out: median protective dose (PD50)
Description: (§3) The in vivo activity is obtained when the compounds are tested according to the procedure of Miller, et al (Proc. Soc. Exp. Biol. Med. 57, 261, 1944). The median protective dose (PD50) was determined in mice given lethal systemic infections. Single doses of compound were given at time of challenge.
as §2
(§4) The in vivo data as PD50 s are reported below the line of MICs for the same compound.

Strep. faecalis MGH-2 = assay: in vitro antibacterial activity, microtitration dilution (MIC), Strep. faecalis MGH-2; type: cell-based; conditions: Enterococcus faecalis, MGH2, read-out: minimum inhibiting concentration (MIC)
Source text: as §1, §2

Ent. cloacae MA2646 = assay: in vitro antibacterial activity, microtitration dilution (MIC), Ent. cloacae MA2646; type: cell-based; conditions: Enterobacter cloacae, read-out: minimum inhibiting concentration (MIC)
Source text: as §1, §2

Esch. coli Vogel [5] = assay: median protective dose in mice given lethal systemic infections, Esch. coli Vogel; type: in vivo; conditions: Escherichia coli, single dose at time of challenge, read-out: median protective dose (PD50)
Description: as §3, §2, §4

Strep. pheumoniae SV-1 [6] = assay: median protective dose in mice given lethal systemic infections, Strep. pneumoniae SV-1; type: in vivo; conditions: Streptococcus pneumoniae, single dose at time of challenge, read-out: median protective dose (PD50)
Description: as §3, §2, §4

[7] = cytotoxicity, hamster V-79 cells, colony reduction; type: cell-based; conditions: 3 hours treatment, colonies counted after 5 days, read-out: Cytotox (cytotoxicity IC50)
Description: The cytotoxicity data is obtained using hamster V-79 cells. The cells were suspended in tissue culture medium and grown overnight. Cells were treated with drug for 3 hours, washed free of drug and then replated, and the colonies counted after 5 days. The concentration of drug that reduced colones by 50% relative to control was recorded.
as §2

Compound | MIC (Esch. coli Vogel [1]) [µg/mL] | MIC (Staph. aureus UC-76) [µg/mL] | MIC (Strep. pyogenes C-203 [2]) [µg/mL] | MIC (Staph. aureus H 228) [µg/mL] | MIC (Klebs. pneumoniae MGH-2) [µg/mL] | MIC (Pseud. aeruginosa UI-18) [µg/mL] | MIC (Prot. rettgeri M 1771) [µg/mL] | MIC (Strep. pheumoniae SV-1 [3]) [µg/mL] | ED50 (Strep. pyogenes C-203 [4]; C203, PO) [mg/kg] | ED50 (Strep. pyogenes C-203 [4]; C203, SC) [mg/kg] | MIC (Strep. faecalis MGH-2) [µg/mL] | MIC (Ent. cloacae MA2646) [µg/mL] | ED50 (Esch. coli Vogel [5]; PO) [mg/kg] | ED50 (Esch. coli Vogel [5]; SC) [mg/kg] | ED50 (Strep. pheumoniae SV-1 [6]; SV1, PO) [mg/kg] | ED50 (Strep. pheumoniae SV-1 [6]; SV1, SC) [mg/kg] | CC50 at 3 h [7] [µg/mL]
CCN[C@@H](C)[C@@H]1CCN(c2c(F)c(N)c3c(=O)c(C(=O)O)cn(C4CC4)c3c2F)C1 [Example 53, 3R,1S-5-amino-1-cyclopropyl-7-[3-(1-N-ethylaminoethyl)-1-pyrrolidinyl]-6,8-difluoro-1,4-dihydro-4-oxo-3-quinolinecarboxylic acid] | 0.025 (≈ 0.0595 µM) | ≤ 0.003 | ≤ 0.003 | ≤ 0.003 | 0.05 (≈ 0.119 µM) | 0.8 (≈ 1.9 µM) | 0.1 (≈ 0.238 µM) | ≤ 0.003 | 0.3 | 0.3 | 0.013 (≈ 0.0309 µM) | 0.025 (≈ 0.0595 µM) | 1.6 | 0.8 | – | – | –
C[C@H](N)[C@H]1CCN(c2cc3c(cc2F)c(=O)c(C(=O)O)cn3C2CC2)C1 [Example 2, 3S,1S-1-cyclopropyl-6-fluoro-7-[3-(1-aminoethyl)-1-pyrrolidinyl]-1,4-dihydro-4-oxo-3-quinolinecarboxylic acid] | 0.2 (≈ 0.556 µM) | 0.1 (≈ 0.278 µM) | 0.1 (≈ 0.278 µM) | 0.8 (≈ 2.23 µM) | 0.4 (≈ 1.11 µM) | 1.5 (≈ 4.17 µM) | 0.8 (≈ 2.23 µM) | 0.2 (≈ 0.556 µM) | – | – | 0.4 (≈ 1.11 µM) | 0.2 (≈ 0.556 µM) | 100 | 4 | > 100 | 12 | 160 (≈ 445 µM)
CN[C@H](C)[C@@H]1CCN(c2nc3c(cc2F)c(=O)c(C(=O)O)cn3C2CC2)C1 [Example 22, 3R,1R-1-cyclopropyl-6-fluoro-7-[3-(1-N-methylaminoethyl)-1-pyrrolidinyl]-1,4-dihydro-4-oxo-1,8-naphthyridine-3-carboxylic acid] | 0.1 (≈ 0.267 µM) | 0.05 (≈ 0.134 µM) | 0.05 (≈ 0.134 µM) | 0.1 (≈ 0.267 µM) | 0.2 (≈ 0.534 µM) | 1.6 (≈ 4.27 µM) | 0.4 (≈ 1.07 µM) | 0.05 (≈ 0.134 µM) | 8 | 5 | 0.025 (≈ 0.0668 µM) | 0.1 (≈ 0.267 µM) | 4.6 | 1.2 | – | – | 88 (≈ 235 µM)
CN[C@H](C)[C@H]1CCN(c2c(F)cc3c(=O)c(C(=O)O)cn(C4CC4)c3c2OC)C1 [Example 38, 3S,1R-1-cyclopropyl-6-fluoro-7-[3-(1-N-methylaminoethyl)-1-pyrrolidinyl]-8-methoxy-1,4-dihydro-4-oxo-3-quinolinecarboxy acid] | 0.2 (≈ 0.496 µM) | 0.013 (≈ 0.0322 µM) | 0.025 (≈ 0.062 µM) | 0.05 (≈ 0.124 µM) | 0.4 (≈ 0.991 µM) | 3.1 (≈ 7.68 µM) | 0.8 (≈ 1.98 µM) | 0.025 (≈ 0.062 µM) | 6 | 1 | 0.05 (≈ 0.124 µM) | 0.2 (≈ 0.496 µM) | – | – | – | – | 130 (≈ 322 µM)
CN[C@@H](C)[C@@H]1CCN(c2nc3c(cc2F)c(=O)c(C(=O)O)cn3C2CC2)C1 [Example 21, 3R,1S-1-cyclopropyl-6-fluoro-7-[3-(1-N-methylaminoethyl)-1-pyrrolidinyl]-1,4-dihydro-4-oxo-1,8-naphthyridine-3-carboxylic acid] | 0.1 (≈ 0.267 µM) | 0.0013 (≈ 0.00347 µM) | 0.025 (≈ 0.0668 µM) | 0.05 (≈ 0.134 µM) | 0.2 (≈ 0.534 µM) | 1.6 (≈ 4.27 µM) | 0.4 (≈ 1.07 µM) | 0.013 (≈ 0.0347 µM) | 2 | 2 | 0.05 (≈ 0.134 µM) | 0.1 (≈ 0.267 µM) | 1 | 0.5 | – | – | 130 (≈ 347 µM)
CCOc1c(N2CC[C@@H]([C@H](C)NC)C2)c(F)cc2c(=O)c(C(=O)O)cn(C3CC3)c12 [Example 57, 3R,1S-1-cyclopropyl-8-ethoxy-6-fluoro-1,4-dihydro-7-[3-(1-N-methylaminoethyl)-1-pyrrolidinyl]-4-oxo-3-quinolinecarboxylic acid] | 0.4 (≈ 0.958 µM) | 0.013 (≈ 0.0311 µM) | 0.025 (≈ 0.0599 µM) | 0.025 (≈ 0.0599 µM) | 0.4 (≈ 0.958 µM) | 3.1 (≈ 7.43 µM) | 0.8 (≈ 1.92 µM) | 0.025 (≈ 0.0599 µM) | – | – | 0.05 (≈ 0.12 µM) | 0.4 (≈ 0.958 µM) | – | – | – | – | 220 (≈ 527 µM)
